Values of other authors, collected in patent US4878891A, “Method for eradicating infectious biological contaminants in body tissues” (Baylor Research Foundation, priority 1987, dated 1989).

How the values were obtained:
[1] = test system: cutaneous T-cell lymphoma; conditions: oral; blood fraction exposed to ultraviolet A
tumor = conditions: injected; several types of tumor induced in mice
malignant tumors = conditions: patients given large doses; ultraviolet light

## COc1c2occc2cc2ccc(=O)oc12 [8-methoxypsoralen]
[1]
  control of cutaneous T-cell lymphoma activity: could be controlled

## CC[C@]1(O)C[C@H]2CN(CCc3c([nH]c4ccccc34)[C@@](C(=O)OC)(c3cc4c(cc3OC)N(C=O)[C@H]3[C@@](O)(C(=O)OC)[C@H](OC(C)=O)[C@]5(CC)C=CCN6CC[C@]43[C@@H]65)C2)C1 [Vincristine]
Viral diseases
  treatment of viral diseases: ineffective

## Cc1cn([C@H]2C[C@H](N=[N+]=[N-])[C@@H](CO)O2)c(=O)[nH]c1=O [3-deoxy-3'-azidothymidine (AZT), 3-deoxy-3'-azidothymidine]
Tumor cells
  preventing the proliferation of tumor cells: totally ineffective

## CC1=C(CCC(=O)O)c2cc3[nH]c(cc4nc(cc5[nH]c(cc1n2)c(C)c5C(C)O)C(C)=C4C(C)O)c(C)c3CCC(=O)O (centres unmarked) [hematoporphyrin]
tumor
  localization in tumors: localized and fluoresced in several types of tumor
Malignant tumors
  red fluorescence in malignant tumors: red fluorescence
